A word on the EC50: it is the concentration at which the effect is half-maximal. Lower therefore signals greater potency.

Experimental findings from publication PMC5533763, “Two dopamine D2-like receptor genes from the silkworm (Bombyx mori) and their evolutionary history in metazoan” (Scientific Reports, 2017) are described below.

This experiment concerns the target T1, BmDop2R2 (Bombyx mori, UniProt A0A2D1QSC3).
T1 construct: full-length ORF (536 residues printed; 1596 bp ORF, which would give about 531; 7 TM) in pcDNA3.1(+), HindIII/NotI, transfected HEK-293 cells; no tag mentioned; chromosome 18, nscaf 2901; tandem paralogue of BmDop2R1 (440 residues, lacks TM I-II)
T1 sequence (A0A2D1QSC3 1-536): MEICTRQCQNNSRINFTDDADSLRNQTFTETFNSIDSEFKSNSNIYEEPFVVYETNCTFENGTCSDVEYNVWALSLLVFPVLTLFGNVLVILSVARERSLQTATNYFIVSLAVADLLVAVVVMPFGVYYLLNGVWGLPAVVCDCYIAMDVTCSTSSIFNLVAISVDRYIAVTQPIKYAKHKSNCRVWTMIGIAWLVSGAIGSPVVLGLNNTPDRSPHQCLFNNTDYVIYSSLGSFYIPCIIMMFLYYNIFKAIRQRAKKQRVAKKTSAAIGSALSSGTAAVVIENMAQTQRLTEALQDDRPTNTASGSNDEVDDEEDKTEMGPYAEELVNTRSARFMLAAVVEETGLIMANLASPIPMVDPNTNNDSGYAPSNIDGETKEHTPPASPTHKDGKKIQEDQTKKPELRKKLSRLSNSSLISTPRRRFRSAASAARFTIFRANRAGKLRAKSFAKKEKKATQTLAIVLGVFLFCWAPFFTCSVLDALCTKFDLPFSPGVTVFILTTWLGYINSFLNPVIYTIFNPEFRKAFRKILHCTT
Kind of experiment: cAMP ELISA in transfected HEK-293 cells (inhibition of forskolin-stimulated cAMP). It counts as cell-based.

The compound `NCCc1ccc(O)c(O)c1` [dopamine] came in with an EC50 of 657 nM.
